The text below walks through data of PubChem BioAssay AID743276 (Broad Institute, 2014).

Inconclusive results are not listed. Activity calls are given as the source filed them.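 Rule for the calls: active = compounds whose fitted cell loss curve, in every repeat run, reached half effect below twice the top dose; inconclusive = repeat runs disagree, or runs show weak or poorly fitted drops; inactive = every repeat run called inactive.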

System in the first assay: not listed separately
The assay is described as follows: reduction of CAPAN-1 cell number – imaging, dry powder, set 3, dose response (AID 743276). As to conditions: CAPAN-1 cell number, Hoechst imaging, 14 days; at 50 µM (top of the series).
Take `CN(C)CCCNC(=S)N(CCN(C)C)Cc1cc2cc3c(cc2[nH]c1=O)OCCO3`: the activity change, negative = fewer cells is -2.03% (inactive).
Regarding `CCN(CC)CCCN(Cc1cc2cc3c(cc2[nH]c1=O)OCO3)C(=S)NCCCN(C)C`, the activity change, negative = fewer cells was -1.27% (inactive).
For the compound `O=c1c2c(-c3ccccc3)csc2nc2c3ccccc3c(NCCN3CCOCC3)nn12`, the activity change, negative = fewer cells is -15.7% (inactive).
For the compound `CCCNc1nc(Cl)nc(NCc2cccnc2)n1`, the activity change, negative = fewer cells is -7.79% (inactive).

The test system of another assay is CAPAN-1 cell number, Hoechst imaging, 14 days. The assay is described as above.
Conditions: not given
On to `Cc1cc(C)c2c(c1)c1nnc(SCCN3CCCCC3)nc1n2C`, for which the concentration at half-maximal activity (AC50) was 42.3 µM.
Turning to `COc1ccccc1Nc1nc(NCCCO)c2ccccc2n1`, the concentration at half-maximal activity (AC50) is 31.1 µM.
Consider `Cc1cc(N2CCN(C)CC2)nc2ccc(NC(=S)NCCCN3CCN(C)CC3)cc12`, for which the AC50 was 43.7 µM.
Still for that read-out and setting: to `CCN(CC)CCNC(=S)Nc1ccc2nc(N3CCN(CC)CC3)cc(C)c2c1` belongs 13.8 µM; to `CC1(C)CC(NC(=O)c2ccc(Cl)c(S(=O)(=O)N(Cc3ccccc3)c3ccccc3)c2)CC(C)(C)N1`, 12.8 µM.
Consider `C=C1Nc2cc(-c3ccc(Cl)cc3)nn2C(NCCN(C)C)=C1C`, for which the AC50 was 8.39 µM.
`CCCCN(CC)CCNC(=O)CCC(=O)Nc1ccc2nc(N3CCN(C)CC3)cc(C)c2c1`: the AC50 is 25.1 µM.
Take `CCCN1CCN(CCCNC(=S)Nc2ccc3nc(N4CCN(CC)CC4)cc(C)c3c2)CC1`: the AC50 is 24.7 µM.
Turning to `COc1ccc2oc(C(=O)c3ccccc3)c(NC(=O)CN3CCN(C)CC3)c2c1`, the concentration at half-maximal activity (AC50) was 13.5 µM.
On to `CCN1CCN(c2cc(C)c3cc(NC(=O)c4ccccn4)ccc3n2)CC1`, for which the AC50 was 35.6 µM.
As for `OCCNc1nc(Nc2ccccc2F)nc2ccccc12`, the AC50 was 32 µM.
Take `Cc1cc(C)c2sc(N(CCCN(C)C)C(=O)CN3C(=O)c4ccccc4C3=O)nc2c1`: the half-maximal activity concentration (AC50) was 22.2 µM.
Regarding `CCN1CCc2c(sc(NC(=O)c3ccc(OC)cc3OC)c2C(N)=O)C1`, the AC50 was 32.7 µM.
In the case of `CCCCN(CC)CCNC(=O)c1cc2c(-c3ccc(Cl)cc3)nn(C)c2s1`, the concentration at half-maximal activity (AC50) was 3.57 µM.
Turning to `CN(C)CCCN(C(=O)c1ccc(C(=O)c2ccccc2)cc1)c1nc2cc3c(cc2s1)OCO3`, the AC50 was 12.7 µM.
For the compound `CN(C)CCCNC(=S)NCC(c1ccc(Cl)cc1Cl)c1c[nH]c2ccccc12` (stereo not drawn), the AC50 was 27.4 µM.
Take `COc1ccc(C2NCCc3c2[nH]c2ccccc32)cc1COc1ccc(F)cc1` (stereo not drawn): the half-maximal activity concentration (AC50) was 18.7 µM.
On to `Cn1nc(-c2ccc(Cl)cc2)c2cc(C(=O)NCCCN3CCCC3)sc21`, for which the AC50 was 3.72 µM.
As for `CN1CCN(CCCNC(=O)c2cc3c(-c4ccc(Cl)cc4)nn(C)c3s2)CC1`, the AC50 was 10.5 µM.
On the same count and under the same terms, to `CN(C)CCCN(C(=O)c1nc2ccccc2s1)c1nc2ccc(F)cc2s1` belongs 17 µM; to `CCN(CC)CCN(C(=O)C1=COCCO1)c1nc2c(OC)ccc(OC)c2s1`, 47.5 µM.
Take `CCN1CCN(C(=S)Nc2ccc3nc(N4CCN(C)CC4)cc(C)c3c2)CC1`: the AC50 was 10.7 µM.
As for `COc1ccc(-c2oc3ncnc(NCCCN4CCOCC4)c3c2-c2ccc(OC)cc2)cc1`, the AC50 is 43.8 µM.
For the compound `Cc1c(C(=O)Nc2ccc(S(=O)(=O)N(C)C3CCN(C)CC3)cc2)oc2c(Cl)cccc12`, the AC50 was 11.2 µM.
For the compound `Cc1ccc2sc(N(CCCN(C)C)C(=O)c3ccc(S(=O)(=O)N(C)Cc4ccccc4)cc3)nc2c1C`, the half-maximal activity concentration (AC50) is 9.25 µM.
On the same count and under the same terms, to `COc1ccccc1Nc1nc(NCCO)c2ccccc2n1` belongs 24.6 µM; to `CCN1CCN(CCCNC(=O)C2CCN(c3nnc(-n4c(C)ccc4C)s3)CC2)CC1`, 20.5 µM.
`Cc1ccc2sc(N(CCCN(C)C)C(=O)c3ccc(S(=O)(=O)N(C)C4CCCCC4)cc3)nc2c1C`: the AC50 was 24 µM.
Take `Cc1cc(C)n(-c2nc(NCCN(C)C)c3c4c(sc3n2)CCCC4)n1`: the concentration at half-maximal activity (AC50) is 15.4 µM.
On to `Cc1ccc2nc(-c3ccc(NC(=S)NC4CC(C)(C)NC(C)(C)C4)cc3)sc2c1`, for which the half-maximal activity concentration (AC50) is 12.1 µM.
Take `CCCN(CCC)CCCNC(=S)Nc1ccc2nc(N3CCN(CC)CC3)cc(C)c2c1`: the AC50 was 22.8 µM.
Consider `CCCCN(CC)CCCNC(=S)Nc1ccc2nc(N3CCN(C)CC3)cc(C)c2c1`, for which the AC50 is 37.8 µM.
With `Cc1ccc(C(=O)c2oc3ccc(Cl)cc3c2NC(=O)CN2CCN(C)CC2)cc1`, the AC50 is 9.78 µM.
As for `c1ccc(-c2cc(N3CCC(N4CCCC4)CC3)n3nccc3n2)cc1`, the concentration at half-maximal activity (AC50) was 46.1 µM.
